Measured values from the NIST ThermoML archive (doi:10.1016/j.fluid.2015.05.026).
“And” between values parts separate entries of the source, which are not always exact repeats. Equal entries are not always repeated.

Legend:
[1] = Liquid, Closed cell (Static) method
[2] = molar heat capacity at constant pressure; details: 101.33 kPa, Liquid, Large sample (1 g) DSC

C=CC(O)CCC (configuration not stated) [1-hexen-3-ol]
Details | molar heat capacity at constant pressure [J/K/mol] | vapor or sublimation pressure
[1], 238.2 K | – | 0.001239 kPa and 0.001245 kPa and 0.001252 kPa
[1], 243.15 K | – | 0.002307 kPa and 0.002309 kPa and 0.00231 kPa
[1], 248.15 K | – | 0.004181 kPa
[1], 248.2 K | – | 0.004188 kPa and 0.004193 kPa
[1], 253.15 K | – | 0.007373 kPa and 0.007376 kPa
[1], 258.15 K | – | 0.01269 kPa and 0.0127 kPa and 0.01271 kPa
[1], 263.15 K | – | 0.0214 kPa and 0.02141 kPa
[1], 268.15 K | – | 0.03517 kPa and 0.03518 kPa
[1], 273.15 K | – | 0.05668 kPa and 0.05669 kPa and 0.05671 kPa
[1], 278.15 K | – | 0.08933 kPa and 0.08939 kPa
[1], 283.15 K | – | 0.1383 kPa and 0.1384 kPa
[1], 288.15 K | – | 0.2097 kPa and 0.2098 kPa
[1], 293.15 K | – | 0.3122 kPa and 0.3123 kPa
[1], 298.15 K | – | 0.4574 kPa and 0.4576 kPa
[1], 303.15 K | – | 0.6587 kPa and 0.6589 kPa
[1], 308.15 K | – | 0.9353 kPa and 0.9355 kPa
[2], 265 K | 235.9 | –
[2], 270 K | 241 | –
[2], 275 K | 246 | –
[2], 280 K | 250.8 | –
[2], 285 K | 255.5 | –
[2], 290 K | 260.1 | –
[2], 295 K | 264.8 | –
[2], 300 K | 269.3 | –
[2], 305 K | 273.6 | –
[2], 310 K | 277.6 | –
[2], 315 K | 281.6 | –
[2], 320 K | 285.4 | –
[2], 325 K | 289.1 | –
[2], 330 K | 292.5 | –
[2], 335 K | 295.4 | –
[2], 340 K | 298.2 | –
[2], 345 K | 301.2 | –
[2], 350 K | 303.8 | –
[2], 354.7 K | 305.5 | –

CCC/C=C/CO [(E)-2-hexen-1-ol]
Details | molar heat capacity at constant pressure [J/K/mol] | vapor or sublimation pressure
[1], 238.15 K | – | 0.000207 kPa and 0.00021 kPa and 0.000211 kPa
[1], 243.15 K | – | 0.000404 kPa and 0.000406 kPa and 0.000407 kPa
[1], 248.15 K | – | 0.000768 kPa and 0.000772 kPa
[1], 253.15 K | – | 0.001399 kPa and 0.001397 kPa
[1], 258.15 K | – | 0.002485 kPa and 0.002492 kPa and 0.002493 kPa
[1], 263.15 K | – | 0.004314 kPa and 0.004317 kPa and 0.004318 kPa
[1], 268.15 K | – | 0.007304 kPa and 0.00731 kPa and 0.007315 kPa
[1], 273.15 K | – | 0.01214 kPa
[1], 273.65 K | – | 0.01275 kPa and 0.01276 kPa
[1], 278.15 K | – | 0.01974 kPa and 0.01975 kPa
[1], 283.15 K | – | 0.03147 kPa and 0.03148 kPa
[1], 288.15 K | – | 0.04923 kPa and 0.04926 kPa and 0.04927 kPa
[1], 293.15 K | – | 0.07568 kPa and 0.07569 kPa
[1], 298.15 K | – | 0.1143 kPa
[1], 303.15 K | – | 0.1699 kPa
[1], 308.15 K | – | 0.2483 kPa and 0.2484 kPa
[2], 265 K | 211.9 | –
[2], 270 K | 215.1 | –
[2], 275 K | 218.4 | –
[2], 280 K | 221.9 | –
[2], 285 K | 225.4 | –
[2], 290 K | 229.2 | –
[2], 295 K | 233.3 | –
[2], 300 K | 237.2 | –
[2], 305 K | 241.3 | –
[2], 310 K | 245.3 | –
[2], 315 K | 249.5 | –
[2], 320 K | 253.6 | –
[2], 325 K | 257.8 | –
[2], 330 K | 261.9 | –
[2], 335 K | 265.6 | –
[2], 340 K | 269.5 | –
[2], 345 K | 273.3 | –
[2], 350 K | 276.9 | –
[2], 355 K | 280.1 | –

CC/C=C\CCO [(Z)-3-hexen-1-ol]
Details | molar heat capacity at constant pressure [J/K/mol] | vapor or sublimation pressure
[1], 238.15 K | – | 0.000301 kPa and 0.000303 kPa and 0.000304 kPa
[1], 243.15 K | – | 0.000577 kPa and 0.000579 kPa and 0.00058 kPa
[1], 248.15 K | – | 0.001062 kPa and 0.001066 kPa and 0.001069 kPa
[1], 253.15 K | – | 0.001923 kPa and 0.001926 kPa and 0.001921 kPa
[1], 258.15 K | – | 0.003383 kPa and 0.003393 kPa and 0.003395 kPa
[1], 263.15 K | – | 0.005802 kPa and 0.005803 kPa and 0.005805 kPa
[1], 268.15 K | – | 0.009727 kPa and 0.009728 kPa and 0.009737 kPa
[1], 273.65 K | – | 0.01674 kPa
[1], 278.15 K | – | 0.02561 kPa and 0.02562 kPa and 0.02563 kPa
[1], 283.15 K | – | 0.04036 kPa and 0.04037 kPa
[1], 288.15 K | – | 0.06241 kPa and 0.06244 kPa
[1], 293.15 K | – | 0.09491 kPa and 0.09494 kPa and 0.09496 kPa
[1], 298.15 K | – | 0.142 kPa
[1], 303.15 K | – | 0.2089 kPa and 0.209 kPa
[1], 308.15 K | – | 0.3032 kPa and 0.3034 kPa
[2], 265 K | 206.7 | –
[2], 270 K | 210.2 | –
[2], 275 K | 213.9 | –
[2], 280 K | 217.6 | –
[2], 285 K | 221.4 | –
[2], 290 K | 225.4 | –
[2], 295 K | 229.7 | –
[2], 300 K | 234 | –
[2], 305 K | 238.2 | –
[2], 310 K | 242.4 | –
[2], 315 K | 246.7 | –
[2], 320 K | 250.9 | –
[2], 325 K | 255.2 | –
[2], 330 K | 259.2 | –
[2], 335 K | 263.1 | –
[2], 340 K | 266.8 | –
[2], 345 K | 270.8 | –
[2], 350 K | 274.6 | –
[2], 355 K | 277.8 | –

CCCCCCO [hexan-1-ol]
[1]
Details | vapor or sublimation pressure
237.95 K | 0.000143 kPa
238 K | 0.000143 kPa and 0.000145 kPa
243.2 K | 0.000296 kPa
243.25 K | 0.000293 kPa
248.2 K | 0.000569 kPa and 0.00056 kPa and 0.000564 kPa
253.15 K | 0.001054 kPa and 0.001051 kPa and 0.001057 kPa
258.15 K | 0.001918 kPa and 0.001915 kPa and 0.00192 kPa
263.15 K | 0.003393 kPa and 0.003385 kPa
268.15 K | 0.005838 kPa and 0.005843 kPa and 0.005839 kPa
273.15 K | 0.009866 kPa and 0.009857 kPa
273.65 K | 0.01039 kPa
278.15 K | 0.01629 kPa and 0.0163 kPa
283.15 K | 0.02639 kPa and 0.02642 kPa
288.15 K | 0.04189 kPa and 0.0419 kPa
293.15 K | 0.06536 kPa and 0.06537 kPa
298.15 K | 0.1001 kPa
303.15 K | 0.1505 kPa
308.15 K | 0.223 kPa and 0.223 kPa and 0.2231 kPa
